This experiment addresses stromelysin (Homo sapiens, UniProt P08254). Kind of experiment: Assay of stromelysin inhibition activity (fluorogenic coumarin peptide substrate). It counts as biochemical. The settings on record: trypsin-activated stromelysin 2 nM, H-150 buffer pH 7.4, room temperature; read-out: Ki(app). The method, then:
Stromelysin was first activated with trypsin. This was done by preparing a reaction mixture in H-150 (H-150 consists of 10 mM CaCl2, 150 mM NaCl and 100 mM HEPES at pH 7.4) containing a final concentration of 25 μg/mL trypsin and 2.2 μM of stromelysin (Marcy et al., Biochemistry,30:6476 (1991); Koklitis et al., Biochem. J., 376:217 (1991). The reaction was incubated for 30 minutes at 37° C. and then quenched by adding trypsin inhibitor agarose to the reaction mixture at a 20 fold excess with respect to trypsin.
The reaction mixture was centrifuged at 14,000 rpm (16,000 ×g) for 30 minutes using an Eppendorf Centrifuge 5415C. The supernant, which contains activated stromelysin, was concentrated with a Centricon 10 (5000 g, 1 hour). A sample was analyzed by Bradford total protein assay and 12% SDS polyacrylamide gel electrophoresis.
All steps of the stromelysin inhibition assay were performed at room temperature. Assay solutions were prepared for each inhibitor tested. Activated stromelysin was added to a stirred covelte to a final concentration of 2 nM in 2 mL of H-150 buffer. 4 μL 5 mM coumarin peptide substrate was dissolved in DMSO and the initial rate of hydrolysis was measured for 100-200 seconds.
Substrate hydrolysis was assessed by fluorescence using a slit width of 10:10, excitation at 328 nm and emission at 393 nm. Ki was calculated based on the assumption of simple competitive inhibition and a substrate concentration much less than Km. 2 μL of 10 mM inhibitor in DMSO was added and the reduction in hydrolysis rate measured. The addition of 2 μL of inhibitor was continued until a 30-70% inhibition was observed.
Sequence of stromelysin (P08254 100-477): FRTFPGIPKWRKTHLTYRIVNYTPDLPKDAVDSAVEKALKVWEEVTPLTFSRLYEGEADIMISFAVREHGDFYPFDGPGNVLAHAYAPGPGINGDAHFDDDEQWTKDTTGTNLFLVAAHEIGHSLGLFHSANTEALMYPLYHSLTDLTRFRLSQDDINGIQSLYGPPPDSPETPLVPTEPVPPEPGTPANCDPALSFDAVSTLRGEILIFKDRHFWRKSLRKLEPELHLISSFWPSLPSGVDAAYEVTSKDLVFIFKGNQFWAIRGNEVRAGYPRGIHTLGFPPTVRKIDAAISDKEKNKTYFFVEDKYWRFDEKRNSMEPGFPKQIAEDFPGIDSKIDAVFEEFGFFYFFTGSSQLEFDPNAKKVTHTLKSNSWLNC
Turning to `CC(C)[C@H](NC(=O)[C@H](Cc1c[nH]c2ccccc12)NC(=O)OCc1ccccc1)C(=O)Nc1n[nH]c(=S)s1` [5-(N-benzyloxycarbonyl-tryptoyl-valylamino)-1,3,4-thiadiazole-2-thione], the Ki came out at 741 nM.

On to `CC(C)[C@H](NC(=O)[C@H](Cc1cc(I)c(O)c(I)c1)NC(=O)OCc1ccccc1)C(=O)Nc1n[nH]c(=S)s1`, for which the Ki came to 97 nM.

As for `CC(C)(C)[C@H](NC(=O)[C@H](Cc1ccc(OCc2ccccc2)cc1)NC(=O)OCc1ccccc1)C(=O)Nc1n[nH]c(=S)s1`, the Ki worked out at 89 nM.

For `CC(C)C[C@H](NC(=O)[C@@H]1CCCN1C(=O)OCc1ccccc1)C(=O)N[C@@H](C)C(=O)Nc1n[nH]c(=S)s1` [5-(N-benzyloxycarbonyl-prolyl-leucyl-alanylamino)-1,3,4-thiadiazole-2-thione], the Ki was determined as 1740 nM.

In the case of `CC(C)(NC(=O)C(Cc1ccc(OCc2ccccc2)cc1)NC(=O)OCc1ccccc1)C(=O)Nc1n[nH]c(=S)s1` (stereo not drawn) [5-(N-benzyloxycarbonyl-((O-benzyl)tyrosyl)-amino-isobutyroylamino)-1,3,4-thiadiazole-2-thione], the Ki stood at 237 nM.

As for `O=C(N[C@@H](Cc1c[nH]c2ccccc12)C(=O)Nc1n[nH]c(=S)s1)OCC1c2ccccc2-c2ccccc21` [5-(N-(9-fluorenylmethoxycarbonyl)tryptonylamino)-1,3,4-thiadiazole-2-thione], the Ki worked out at 341 nM.

`CSCC[C@H](NC(=O)OCC1c2ccccc2-c2ccccc21)C(=O)Nc1n[nH]c(=S)s1` [5-(N-9-fluorenylmethoxycarbonyl)methionylamino)-1,3,4-thiadiazole-2-thione]: the Ki was found to be 195 nM.

In the case of `CC(C)C(NC(=O)C(Cc1ccccc1)NC(=O)c1ccc(OCc2ccccc2)cc1)C(=O)Nc1n[nH]c(=S)s1` (stereo not drawn) [5-(N-(4-benzyloxy)benzoyl-phenylalanyl-valylamino)-1,3,4-thiadiazole-2-thione], the Ki came to 61 nM.

As to `O=C(CNC(=O)[C@H](Cc1ccccc1)NC(=O)OCc1ccccc1)Nc1n[nH]c(=S)s1` [5-(N-benzyloxycarbonyl-phenylalanyl-glycylamino)-1,3,4-thiadiazole-2-thione], the Ki is 3950 nM.

Consider `O=C(N[C@@H](Cc1ccccc1F)C(=O)Nc1n[nH]c(=S)s1)OCc1ccccc1` [5-(N-benzyloxycarbonyl-(ortho-fluoro)phenylalanylamino)-1,3,4-thiadiazole-2-thione], for which the Ki turned out to be 630 nM.

In the case of `CCCC(NC(=O)OCC1c2ccccc2-c2ccccc21)C(=O)Nc1n[nH]c(=S)s1` (stereo not drawn) [5-(N-(9-fluorenylmethoxycarbonyl-norvalyl)-1,3,4-thiadiazole-2-thione], the Ki came out at 509 nM.

`CC(C)(C)OC(=O)NCCCC[C@H](NC(=O)OCc1ccccc1)C(=O)N[C@@H](Cc1ccc(OCc2ccccc2)cc1)C(=O)NC(C(=O)Nc1n[nH]c(=S)s1)c1ccccc1` (stereo partly drawn) [5-(N-benzyloxycarbonyl-lysyl(N-ε-t-butyloxycarbonyl)-tyrosyl(O-benzyl)-phenylglycylamino-1,3,4-thiadiazole-2-thione]: the Ki worked out at 148 nM.

Take `CC(C)[C@H](NC(=O)[C@@H](NC(=O)OCc1ccccc1)C1CCCCC1)C(=O)Nc1n[nH]c(=S)s1`: the Ki turned out to be 180 nM.

In the case of `O=C(NC(CCC(=O)N(Cc1ccccc1)Cc1ccccc1)C(=O)NC(C(=O)Nc1n[nH]c(=S)s1)c1ccccc1)OCc1ccccc1` (stereo not drawn) [5-(N-benzyloxycarbonyl-(γ-N,N-dibenzyl)glutamyl-phenylglycylamino)-1,3,4-thiadiazole2-thione], the Ki was 19 nM.

For `CC(C)[C@H](NC(=O)[C@H](COCc1ccccc1)NC(=O)OCc1ccccc1)C(=O)Nc1n[nH]c(=S)s1` [5-(N-benzyloxycarbonyl-(O-benzyl)seryl-valylamino)-1,3,4-thiadiazole-2-thione], the Ki was 236 nM.

On to `O=C(N[C@@H](Cc1ccc(OCc2ccccc2)cc1)C(=O)N[C@H](C(=O)Nc1n[nH]c(=S)s1)C1CCCCC1)OCc1ccccc1`, for which the Ki came out at 71 nM.

Consider `CC(C)[C@H](NC(=O)[C@H](Cc1cccc2ccccc12)NC(=O)OCc1ccccc1)C(=O)Nc1n[nH]c(=S)s1`, for which the Ki came out at 190 nM.

In the case of `O=C(N[C@@H](Cc1ccc(N(Cc2ccccc2)Cc2ccccc2)cc1)C(=O)NC(C(=O)Nc1n[nH]c(=S)s1)c1ccccc1)OCc1ccccc1` (stereo partly drawn) [5(N-benzyloxycarbonyl-(N',N'-dibenzylamino)phenylalanine-phepylglycylamino)-1,3,4-thiadiazole-2-thione], the Ki came to 205 nM.

Take `CSc1ncccc1C(=O)NC(Cc1ccccc1)C(=O)NC(C(=O)Nc1n[nH]c(=S)s1)C(C)C` (stereo not drawn) [5-(N-(2-methylthionicotyl)phenylalanyl-valyamino)-1,3,4-thiadiazole-2-thione]: the Ki was 917 nM.

`NCCCC[C@H](NC(=O)OCc1ccccc1)C(=O)N[C@@H](Cc1ccc(OCc2ccccc2)cc1)C(=O)N[C@H](C(=O)Nc1n[nH]c(=S)s1)c1ccccc1`: the Ki is 1890 nM.

Regarding `CC(C)[C@H](NC(=O)[C@H](Cc1ccc2ccccc2c1)NC(=O)OCc1ccccc1)C(=O)Nc1n[nH]c(=S)s1` [5-(N-benzyloxycarbonyl-(2-(2-naphthyl)alanyl-valylamino)-1,3,4-thiadiazole-2-thione], the Ki was 221 nM.

As for `CC(C)[C@H](NC(=O)[C@H](Cc1ccccc1)NC(=O)OCc1ccccc1)C(=O)N[C@@H](Cc1c[nH]c2ccccc12)C(=O)Nc1n[nH]c(=S)s1` [5-(N-benzyloxycarbonyl-phenylalanyl-valyl-tryptonylamino)-1,3,4-thiadiazole-2-thione], the Ki is 273 nM.

With `CC(C)[C@H](NC(=O)[C@H](Cc1ccccc1)NS(=O)(=O)c1cccc2cccnc12)C(=O)Nc1n[nH]c(=S)s1` [5-(N-(8-quinolinesulfonyl)phenylalanyl-valylamino-1,3,4-thiadiazole-2-thione], the Ki was determined as 531 nM.

As to `CC(=O)N[C@@H](CC(C)C)C(=O)N[C@@H](CC(C)C)C(=O)Nc1n[nH]c(=S)s1` [5-(N-acetyl-leucyl-leucylamino)-1,3,4-thiadiazole-2-thione], the Ki was 6440 nM.

With `CC(C)C[C@H](NC(=O)OCc1ccccc1)C(=O)N[C@@H](Cc1ccc(O)cc1)C(=O)Nc1n[nH]c(=S)s1` [5-(N-benzyloxycarbonyl-leucyl-tyrosylamino-1,3,4-thiadiazole-2-thione], the Ki came to 1300 nM.

Turning to `CC(C)C[C@H](NC(=O)OCc1ccccc1)C(=O)N[C@H](C(=O)Nc1n[nH]c(=S)s1)C(C)C` [5-(N-benzyloxycarbonyl-leucyl-valylamino)-1,3,4-thiadiazole-2-thione], the Ki came out at 660 nM.

Consider `O=C(N[C@@H](Cc1c[nH]c2ccccc12)C(=O)Nc1n[nH]c(=S)s1)OCc1ccccc1` [5-(N-benzyloxycarbonyl-tryptonylamino)-1,3,4-thiadiazole-2-thione], for which the Ki is 3370 nM.

Consider `CSCC[C@H](NC(=O)[C@H](CC(C)C)NC(=O)OCc1ccccc1)C(=O)Nc1n[nH]c(=S)s1` [5-(N-benzyloxycarbonyl-leucyl-methionylamino)-1,3,4-thiadiazole-2-thione], for which the Ki was found to be 490 nM.

As to `CC(C)C[C@H](NC(=O)OCC1c2ccccc2-c2ccccc21)C(=O)Nc1n[nH]c(=S)s1` [5-(N-(9-fluorenylmethoxycarbonyl)leucylamino)-1,3,4-thiadiazole-2-thione], the Ki turned out to be 184 nM.

On to `CC(C)(C)OC(=O)N[C@@H](CCc1ccccc1)C(=O)Nc1n[nH]c(=S)s1` [5-(N-t-butoxycarbonyl-homophenylalanylamino)-1,3,4-thiadiazole-2-thione], for which the Ki was determined as 11900 nM.

Turning to `O=C(CC[C@H](NC(=O)OCc1ccccc1)C(=O)NC(C(=O)Nc1n[nH]c(=S)s1)c1ccccc1)NC(c1ccccc1)(c1ccccc1)c1ccccc1` (stereo partly drawn) [5-(N-benzyloxycarbonyl-((γ-N-trityl)glutamyl)-phenylglycylamino)-1,3,4-thiadiazole-2-thione], the Ki stood at 50 nM.

In the case of `CC(C)[C@H](NC(=O)[C@H](Cc1ccccc1F)NC(=O)OCc1ccccc1)C(=O)Nc1n[nH]c(=S)s1` [5-(N-Benzyloxycarbonyl-(2-flouro)phenyl-valylamino)-1,3,4-thiadiazole-2-thione], the Ki stood at 633 nM.

Consider `O=C(N[C@@H](Cc1ccccc1)C(=O)Nc1n[nH]c(=S)s1)OCc1ccccc1` [5-(N-benzyloxycarbonyl-phenylalanylamino)-1,3,4-thiadiazole-2-thione], for which the Ki came to 2360 nM.

Regarding `CC(C)[C@H](NC(=O)[C@H](Cc1ccc([N+](=O)[O-])cc1)NC(=O)OCc1ccccc1)C(=O)Nc1n[nH]c(=S)s1` [5-(benzyloxycarbonyl-(p-nitro)phenylalanyl-valylamino)-1,3,4-thiadiazole-2-thione], the Ki amounted to 180 nM.

Take `CC(C)C(NC(=O)C(Cc1ccc(OCc2ccc3ccccc3c2)cc1)NC(=O)OCc1ccccc1)C(=O)Nc1n[nH]c(=S)s1` (stereo not drawn) [5-(N-benzyloxycarbonyl((O-methylene-2-naphthyl)tyrosyl)-valylamino)-1,3,4-thiadiazole-2-thione]: the Ki was determined as 62 nM.

Consider `CCCCCCCCC(=O)N[C@@H](Cc1ccccc1)C(=O)N[C@H](C(=O)Nc1n[nH]c(=S)s1)C(C)C` [5-(N-nonanoyl-phenylalanyl-valylamino)-1,3,4-thiadiazole-2-thione], for which the Ki was 83 nM.

The record behind these values is patent US5677282A (Proscript, Inc., priority 1995, dated 1997).
